Laboratory results taken from US20090232735A1, “USE OF FRUCTOSE-BASED THERAPIES FOR THE TREATMENT OF CANCER” (CEDARS-SINAI MEDICAL CENTER, priority 2005, published 2009).

How the values were obtained:
[1] = tested on: transketolase (TKK); experiment: Transketolase expression by Western blot in PANC-1 cells; assay type: cell-based, human; conditions: PANC-1, 5.5 mM fructose, 24 h and 48 h
Experimental: FIG. 33 depicts Western blot analysis of transketolase expression in pancreatic cancer PANC-1 cells following incubation in 2 mM glucose (lanes 1 & 4), 5.5 mM glucose (lanes 2 & 5), and 5.5 mM fructose for 24 h, and 48 h, respectively, in accordance with an embodiment of the present invention. Quantitation of TKK protein levels is depicted in the lower panel.
The inventors believe that fructose-treatment of pancreatic cancer cells led to an increase in TKK-driven nucleic acid synthesis, and thus fructose-treatment would result in an increase in either PANC-1 TKK expression and/or activity in comparison to equivalent glucose concentrations. Western blot analysis on protein lysates derived from fructose-, and glucose-treated PANC-1 cells were performed (5.5 mM fructose, and glucose for 24, and 48 h as per previous protocol) using a specific TKK antibody, and compared TKK expression in the fructose-, and glucose-treated PANC-1 cells. […] After gentle mixing the absorbance of the mixture was measured at 10 min intervals for 2 h at 340 nm. Transketolase activity was then derived from the difference in absorbance at 10, and 80 minutes, and expressed as nmol/min/million cells. […] Pancreatic cancer proliferation rates were then measured using the MTS assay (FIG. 35).

[2] = Serum fructose and glucose in normal volunteers after two cans of soda; assay type: in vivo, human
Experimental: FIG. 37 depicts fasting serum fructose and glucose levels in patients with pancreatic cancer and in normal volunteers in accordance with an embodiment of the present invention. (a) Fasting serum fructose and glucose levels in 6 patients with pancreatic cancer on the morning of resection. (b) Serum fructose, and glucose levels (Mean±SEM) in 3 normal volunteers after a 10 h fast, followed by ingestion of two cans of soda, containing 76 g of carbohydrate in the form of high fructose corn syrup (55% fructose, 45% glucose).
The normal circulating concentrations of fructose are unknown. […] Briefly, aliquots (20 μl) of fructose standards (0.1, 0.5, 1, 2, 4, 6, and 8 mM) or unknown serum samples were mixed with 5 μl of a stock solution (125 U/ml) of the enzyme fructose dehydrogenase (Sigma) in 175 μl citric acid (0.05 M) phosphate (0.09 M) buffer (pH 4.5), and 20 μl of 3-(4,5-dimethylthiazol-2-yl)-2,5-diphenyltetrazolium bromide (MTT), and phenazine methosulfate (Promega), incubated for 30 minutes, after which absorbance at 570 nm was recorded in a 96-well spectrophotometer. […] As the first analysis, in accordance with institutional review board guidelines, the inventors obtained 32 serum samples randomly selected from anonymous inpatients at Cedars-Sinai Medical Center. The inventors also measured glucose in these same samples using standard glucose oxidase based methods. No details of medical condition were known for these patients, and as depicted in FIG. 36, in 24 of these 32 patients, serum fructose was greater than 5 mM. This intriguing result prompted the inventors to examine serum fructose levels in two other settings. Firstly, the inventors drew fasting blood samples from 6 patients with pancreatic cancer on the morning of surgical tumor resection. As depicted in FIG. 37a, 4 of these 6 patients had fasting serum fructose levels >5 mM, and two patients had serum fructose concentrations of ˜12 mM. The significance of these findings in pancreatic cancer patients is at this point unclear, but the inventors believe that the fructose-mediated pro-proliferative effects seen in pancreatic cancer cells in vitro are of significance, given the circulating fructose concentrations the inventors measured. In a further experiment, 3 normal volunteers fasted for 10 hours, an indwelling cannula was placed in a forearm vein, baseline fasting blood drawn, after which they drank two cans of regular soda, which contained 76 g of sugars, almost exclusively high fructose corn syrup. This source of carbohydrate was chosen to approximate to equivalent glucose concentrations used in a standard 75 g glucose tolerance test, and to bear relevance that dietary sources of high content refined fructose may pose an independent risk factor for pancreatic cancer growth.

Q: What does the source list for `O=C(CO)[C@@H](O)[C@H](O)[C@H](O)CO` [fructose]?
A: TKK levels higher than 5.5 mM glucose-treated cells [1]: ~2 fold; mean fasting fructose level ([2]; 3 normal volunteers, 10 h fast, before soda): 2.66 mM; mean serum fructose peak ([2]; 30 minutes after two sodas): 17 mM; serum fructose levels ([2]; for the 2 hour duration of blood sampling after two sodas): greater than 5 mM; mean serum fructose levels ([2]; within 15 minutes after two sodas (76 g sugars, high fructose corn syrup)): 16.5 mM
